One series concerns the target Coagulation factor X (Bos taurus, UniProt P00743). The series can be described thus: In vitro evaluation of inhibitory activity against Coagulation factor X in prothrombinase complex.
Another series concerns the target Serine protease 1 (Homo sapiens, UniProt P07477). Kind of series: In vitro evaluation of inhibitory activity against trypsin.
In the next series the target is Prothrombin (Homo sapiens, UniProt P00734). The series can be described thus: In vitro evaluation of inhibitory activity against Coagulation factor II in prothrombinase complex.
Series [1] in a line: Ratio of inhibitory activity against Plasmin to that of factor Xa.
Series [2] can be described thus: Ratio of inhibitory activity against activated protein C to that of factor Xa.
Series [3] is described as follows: Ratio inhibitory activity against coagulation factor IIa to that of factor Xa.
Series [4] in a line: Ratio of inhibitory activity against […] to that of factor Xa.
Series [5] in a line: Ratio of inhibitory activity against plasminogen activator to that of factor Xa.
Series [6] in a line: pKa value was determined. Format: physicochemical.
Series [7] can be described thus: Maximum concentration in plasma was reported at 2 hour. Particulars: read-out: CPmax. Format: ADME, organism-based.
Series [8] is described as follows: Maximum concentration in plasma was reported at 0.5 hour. Format: ADME, organism-based. The conditions noted are these: read-out: CPmax.

Where only a bound is given, the exact number is not on record here.

Chain of Coagulation factor X (P00743 41-180 limits assumed): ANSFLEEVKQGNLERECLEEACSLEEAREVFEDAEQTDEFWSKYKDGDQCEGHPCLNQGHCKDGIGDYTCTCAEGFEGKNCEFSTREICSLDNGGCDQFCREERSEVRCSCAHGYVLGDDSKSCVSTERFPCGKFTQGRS
Chain of Coagulation factor X (P00743 234-492 limits assumed): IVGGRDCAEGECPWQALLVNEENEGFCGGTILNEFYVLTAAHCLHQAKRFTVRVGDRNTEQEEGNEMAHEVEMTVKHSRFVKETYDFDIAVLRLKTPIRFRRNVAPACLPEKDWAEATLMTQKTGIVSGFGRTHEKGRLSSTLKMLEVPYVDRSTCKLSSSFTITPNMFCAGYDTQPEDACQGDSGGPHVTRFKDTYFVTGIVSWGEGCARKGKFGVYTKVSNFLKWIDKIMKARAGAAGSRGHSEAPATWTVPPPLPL
Chain of Serine protease 1 (P07477 whole entry): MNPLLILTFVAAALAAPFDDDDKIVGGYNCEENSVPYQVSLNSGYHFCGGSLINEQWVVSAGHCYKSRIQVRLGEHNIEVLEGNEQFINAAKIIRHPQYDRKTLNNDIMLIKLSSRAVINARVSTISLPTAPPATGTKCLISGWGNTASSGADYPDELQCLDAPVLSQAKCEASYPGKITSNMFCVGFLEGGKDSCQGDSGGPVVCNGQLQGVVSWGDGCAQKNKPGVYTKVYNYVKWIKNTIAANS

The Ki is the dissociation constant of the complex between target and ligand, obtained from inhibition or displacement. Read a low Ki as a stronger hold on the target. At Coagulation factor X, `COc1ccc2ccc(S(=O)(=O)N[C@H]3CCN(Cc4ccc5ccnc(O)c5c4)C3=O)cc2c1` returned a Ki above 1200 nM.
As to `COc1ccc2ccc(S(=O)(=O)N[C@H]3CCN(Cc4ccc5ccnc(Cl)c5c4)C3=O)cc2c1`, on Coagulation factor X, the Ki is above 1200 nM.
In the case of `COc1ccc2ccc(S(=O)(=O)NC3CCN(Cc4cc5c(N)nccc5s4)C3=O)cc2c1` (stereo not drawn), the Ki was above 2900 nM at Serine protease 1, around 4000 nM at Prothrombin and 250 nM at Coagulation factor X.
Regarding `N=C(N)c1cccc(CN2CC[C@H](NS(=O)(=O)c3cc4ncccc4s3)C2=O)c1`, the Ratio in series [1] was above 280; in [2], 440; in series [3], above 150; in series [4], above 110; in series [5], above 335. On Coagulation factor X, this compound yielded a Ki of 26 nM.
For `COc1ccc2ccc(S(=O)(=O)N[C@H]3CCN(Cc4cc5c(N)nccc5cc4N)C3=O)cc2c1`, on Coagulation factor X, the affinity corresponds to a Ki of 80 nM.
What is called pKa is the pH at which an ionisable group is half protonated. Read a low pKa as a group that gives up its proton readily. For `COc1ccc2ccc(S(=O)(=O)N(C)[C@H]3CCN(Cc4ccc5ncnc(N)c5c4)C3=O)cc2c1`, the Ki is above 2900 nM on Serine protease 1, above 4000 nM at Prothrombin and 1600 nM on Coagulation factor X. Besides, the pKa in series [6] amounted to 5.3.
Regarding `COc1ccc2ccc(S(=O)(=O)NC3CCN(Cc4ccc5nc(N)ccc5c4)C3=O)cc2c1` (stereo not drawn), the Ki is above 2900 nM on Serine protease 1, above 4000 nM at Prothrombin and 1200 nM at Coagulation factor X. The pKa in series [6] is 7.3.
In the case of `COc1ccc2ccc(S(=O)(=O)N[C@H]3CCN(Cc4cc5c(N)nccc5cc4OC)C3=O)cc2c1`, on Coagulation factor X, the Ki was determined as 890 nM.
`Nc1nccc2ccc(CN3CC[C@H](NS(=O)(=O)c4cc5ncccc5s4)C3=O)cc12`: the Cmax in [7] worked out at 2700 nM. In addition, the Ratio is above 330 in series [1]; above 841 in series [2]; above 181 in series [3]; above 131 in [4]; above 395 in series [5].
`COc1ccc2ccc(S(=O)(=O)N[C@H]3CCN(Cc4cc(C(=N)N)ccc4N)C3=O)cc2c1` had a Ki at Coagulation factor X of 6 nM. This counts as single-digit nanomolar.
As for `COc1ccc2ccc(S(=O)(=O)N[C@H]3CCN(Cc4ccc5ccnc(N)c5c4)C3=O)cc2c1`, the results for the Ki on Serine protease 1 and on Prothrombin were above 2900 nM and 1350 nM, respectively. The compound further showed a pKa in series [6] of 7.6.
On to `COc1ccc2ccc(S(=O)(=O)NC3CCN(Cc4ccc5ccc(N)nc5c4)C3=O)cc2c1` (stereo not drawn), for which the values for the Ki at Serine protease 1, on Prothrombin and on Coagulation factor X were above 2900 nM, around 4000 nM and 370 nM, respectively. The compound also gave a pKa in series [6] of 7.3.
Take `COc1ccc2ccc(S(=O)(=O)N(C)[C@H]3CCN(Cc4csc(C(=N)N)c4)C3=O)cc2c1`: in [8], the Cmax is 3100 nM.
On to `COc1ccc2ccc(S(=O)(=O)N[C@H]3CCN(Cc4cccc(C(=N)N)c4)C3=O)cc2c1`, for which the Ki at Serine protease 1 was 850 nM. Besides, the pKa in series [6] is 11.6.

Source of the values: ChEMBL document CHEMBL1132509, “Aminoisoquinolines: design and synthesis of an orally active benzamidine isostere for the inhibition of factor XA” (Bioorg Med Chem Lett, 1999).
